Data reported in ChEMBL document CHEMBL4020724, “Selective HDAC inhibitors with potent oral activity against leukemia and colorectal cancer: Design, structure-activity relationship and anti-tumor activity study” (Eur J Med Chem, 2017).
pIC50: −log10 of the molar value. Active and inactive are the calls of the source. The calls are words filed in the database; no cut-off is given here.

Key:
[1] = target: Histone deacetylase 3 (Homo sapiens, UniProt O15379); test: Inhibition of HDAC3 (unknown origin) using Boc-Lys (acetyl)-AMC as substrate incubated for 10 mins followed by substrate addition measured after 30 mins by fluorescence assay
[2] = target: Histone deacetylase 1 (Homo sapiens, UniProt Q13547); test: Inhibition of HDAC1 (unknown origin) using Boc-Lys (acetyl)-AMC as substrate incubated for 10 mins followed by substrate addition measured after 30 mins by fluorescence assay
[3] = target: Histone deacetylase 2 (Homo sapiens, UniProt Q92769); test: Inhibition of HDAC2 (unknown origin) using Boc-Lys (acetyl)-AMC as substrate incubated for 10 mins followed by substrate addition measured after 30 mins by fluorescence assay
[4] = tested on: HL-60; test: cells; conditions: Homo sapiens, HL-60, 48 h
Description: Antiproliferative activity against human HL60 cells after 48 hrs by MTT assay

[5] = Inhibition of class 1 HDAC in human HL60 cells using Boc-Ac-Lys-AMC as substrate incubated for 3 hrs followed by substrate addition measured after 3 hrs by fluorescence assay; assay type: cell-based; conditions: HL-60, 3 h
[6] = tested on: Mus musculus; test: Toxicity in BALB/c nude mouse xenografted with human HCT116 cells assessed as body weight at 100 mg/kg/day administered via oral gavage for 16 days (reference value: 19.91 +/- 1.26 g); assay type: organism-based; conditions: in vivo, 384 h
[7] = target: T1, Protein deacetylase HDAC6 (Homo sapiens, UniProt Q9UBN7); test: Inhibition of HDAC6 (unknown origin) using Boc-Lys (acetyl)-AMC as substrate incubated for 10 mins followed by substrate addition measured after 30 mins by fluorescence assay
T1 sequence (Q9UBN7 whole entry): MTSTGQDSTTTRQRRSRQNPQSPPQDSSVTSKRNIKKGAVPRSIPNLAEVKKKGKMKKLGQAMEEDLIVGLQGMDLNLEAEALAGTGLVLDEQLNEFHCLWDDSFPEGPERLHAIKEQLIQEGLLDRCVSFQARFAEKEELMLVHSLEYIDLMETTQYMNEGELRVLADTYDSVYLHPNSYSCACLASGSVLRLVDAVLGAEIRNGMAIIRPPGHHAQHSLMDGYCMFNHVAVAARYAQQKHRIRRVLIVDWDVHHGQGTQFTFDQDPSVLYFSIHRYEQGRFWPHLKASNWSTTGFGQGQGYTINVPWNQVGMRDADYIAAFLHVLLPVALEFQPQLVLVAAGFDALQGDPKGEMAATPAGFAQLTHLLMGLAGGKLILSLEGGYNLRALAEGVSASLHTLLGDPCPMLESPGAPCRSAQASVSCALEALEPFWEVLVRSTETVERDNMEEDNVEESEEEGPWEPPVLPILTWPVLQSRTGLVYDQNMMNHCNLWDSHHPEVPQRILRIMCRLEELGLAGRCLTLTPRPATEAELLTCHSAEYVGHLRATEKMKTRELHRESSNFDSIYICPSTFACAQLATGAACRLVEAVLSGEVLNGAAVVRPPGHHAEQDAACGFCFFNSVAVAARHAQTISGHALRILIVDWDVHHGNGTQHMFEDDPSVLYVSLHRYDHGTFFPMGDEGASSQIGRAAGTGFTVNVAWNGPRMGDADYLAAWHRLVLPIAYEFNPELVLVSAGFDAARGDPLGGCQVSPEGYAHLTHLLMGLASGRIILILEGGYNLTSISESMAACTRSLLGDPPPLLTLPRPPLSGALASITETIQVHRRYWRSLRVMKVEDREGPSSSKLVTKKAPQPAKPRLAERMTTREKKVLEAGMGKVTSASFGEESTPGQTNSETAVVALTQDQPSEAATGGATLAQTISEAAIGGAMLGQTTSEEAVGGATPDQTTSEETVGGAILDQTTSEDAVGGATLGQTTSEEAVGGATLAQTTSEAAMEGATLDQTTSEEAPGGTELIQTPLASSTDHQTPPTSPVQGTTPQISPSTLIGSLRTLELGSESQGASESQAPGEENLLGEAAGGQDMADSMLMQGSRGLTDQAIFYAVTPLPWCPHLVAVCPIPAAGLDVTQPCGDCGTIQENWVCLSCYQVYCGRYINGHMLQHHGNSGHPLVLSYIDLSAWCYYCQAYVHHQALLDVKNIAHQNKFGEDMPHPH

[8] = tested on: HCT-116; test: cells; conditions: Homo sapiens, HCT-116, 48 h
[9] = target: T2, Histone deacetylase 8 (Homo sapiens, UniProt Q9BY41); test: Inhibition of HDAC8 (unknown origin) using Boc-Lys (acetyl)-AMC as substrate incubated for 10 mins followed by substrate addition measured after 30 mins by fluorescence assay
T2 sequence (Q9BY41 whole entry): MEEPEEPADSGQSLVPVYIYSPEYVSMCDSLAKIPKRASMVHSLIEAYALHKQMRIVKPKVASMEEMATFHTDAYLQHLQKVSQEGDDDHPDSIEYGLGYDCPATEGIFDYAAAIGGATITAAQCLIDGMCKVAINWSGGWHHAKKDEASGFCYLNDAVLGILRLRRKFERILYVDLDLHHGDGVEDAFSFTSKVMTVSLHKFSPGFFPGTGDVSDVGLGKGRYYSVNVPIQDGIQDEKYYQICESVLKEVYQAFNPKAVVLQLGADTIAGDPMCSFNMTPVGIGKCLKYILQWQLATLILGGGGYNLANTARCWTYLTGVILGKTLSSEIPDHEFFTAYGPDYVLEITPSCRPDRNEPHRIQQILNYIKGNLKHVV

[10] = cells; conditions: Homo sapiens, ES-2, 48 h
Description: Antiproliferative activity against human ES2 cells after 48 hrs by MTT assay

[11] = tested on: U-266; test: Antiproliferative activity against human U266 cells after 48 hrs by MTT assay; assay type: functional, cell-based; conditions: U-266, 48 h
[12] = tested on: U-937; test: cells; conditions: Homo sapiens, U-937, 48 h
Description: Antiproliferative activity against human U937 cells after 48 hrs by MTT assay

[13] = target: Histone deacetylase 4 (Homo sapiens, UniProt P56524); test: Inhibition of HDAC4 (unknown origin) using Boc-Lys (triflouroacetyl)-AMC as substrate incubated for 10 mins followed by substrate addition measured after 30 mins by fluorescence assay
[14] = tested on: HEL; test: Antiproliferative activity against HEL cells after 48 hrs by MTT assay; assay type: functional, cell-based; conditions: Homo sapiens
[15] = tested on: HL-60; test: Induction of apoptosis in human HL60 cells assessed as increase in cleaved PARP level at 1 to 5 uM after 48 hrs by Western blot analysis; assay type: functional, cell-based
[16] = target: T3, Histone deacetylase (HDAC1 and HDAC2) (Homo sapiens) (UniProt Q13547+Q92769); test: Inhibition of HDAC1/2 in human HL60 cells assessed as increase in acetylated histone H3 level at 1 to 5 uM after 48 hrs by Western blot analysis; assay type: cell-based
[17] = target: T3, Histone deacetylase (HDAC1 and HDAC2) (Homo sapiens); test: Inhibition of HDAC1/2 in human HL60 cells assessed as increase in acetylated histone H4 level at 1 to 5 uM after 48 hrs by Western blot analysis; assay type: cell-based
[18] = tested on: HL-60; test: Induction of apoptosis in human HL60 cells assessed as increase in cleaved caspase-3 level at 1 to 5 uM after 48 hrs by Western blot analysis; assay type: functional, cell-based
[19] = tested on: HL-60; test: Induction of apoptosis in human HL60 cells assessed as decrease in procaspase-3 level at 1 to 5 uM after 48 hrs by Western blot analysis; assay type: functional, cell-based
[20] = tested on: K562; test: cells; conditions: Homo sapiens, K562, 48 h

Sequence of Histone deacetylase 3 (O15379 whole entry): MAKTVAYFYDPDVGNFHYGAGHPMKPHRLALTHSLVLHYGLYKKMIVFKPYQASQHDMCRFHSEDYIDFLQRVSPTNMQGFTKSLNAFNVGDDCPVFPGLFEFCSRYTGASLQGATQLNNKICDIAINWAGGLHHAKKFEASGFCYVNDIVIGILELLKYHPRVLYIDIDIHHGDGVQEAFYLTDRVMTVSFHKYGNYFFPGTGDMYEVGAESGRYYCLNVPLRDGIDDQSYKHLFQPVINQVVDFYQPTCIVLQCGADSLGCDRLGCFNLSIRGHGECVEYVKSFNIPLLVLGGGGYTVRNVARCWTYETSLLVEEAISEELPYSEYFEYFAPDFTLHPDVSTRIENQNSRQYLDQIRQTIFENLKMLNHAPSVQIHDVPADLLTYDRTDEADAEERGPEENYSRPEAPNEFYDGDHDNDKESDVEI
Sequence of Histone deacetylase 2 (Q92769 whole entry): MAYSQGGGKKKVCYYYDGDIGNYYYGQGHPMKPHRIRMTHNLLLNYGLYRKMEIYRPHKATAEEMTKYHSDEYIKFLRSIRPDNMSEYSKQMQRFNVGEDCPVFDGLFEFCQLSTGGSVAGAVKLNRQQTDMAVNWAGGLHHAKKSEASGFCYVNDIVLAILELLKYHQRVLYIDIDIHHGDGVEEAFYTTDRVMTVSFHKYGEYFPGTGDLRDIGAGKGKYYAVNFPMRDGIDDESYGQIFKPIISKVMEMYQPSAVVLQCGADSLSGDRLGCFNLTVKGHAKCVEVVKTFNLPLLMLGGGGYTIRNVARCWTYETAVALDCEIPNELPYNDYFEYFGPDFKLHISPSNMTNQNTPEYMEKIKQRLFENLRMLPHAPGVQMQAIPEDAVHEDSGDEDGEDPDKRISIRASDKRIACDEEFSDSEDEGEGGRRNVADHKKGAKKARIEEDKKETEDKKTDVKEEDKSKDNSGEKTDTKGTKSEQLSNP
Sequence of Histone deacetylase 1 (Q13547 whole entry): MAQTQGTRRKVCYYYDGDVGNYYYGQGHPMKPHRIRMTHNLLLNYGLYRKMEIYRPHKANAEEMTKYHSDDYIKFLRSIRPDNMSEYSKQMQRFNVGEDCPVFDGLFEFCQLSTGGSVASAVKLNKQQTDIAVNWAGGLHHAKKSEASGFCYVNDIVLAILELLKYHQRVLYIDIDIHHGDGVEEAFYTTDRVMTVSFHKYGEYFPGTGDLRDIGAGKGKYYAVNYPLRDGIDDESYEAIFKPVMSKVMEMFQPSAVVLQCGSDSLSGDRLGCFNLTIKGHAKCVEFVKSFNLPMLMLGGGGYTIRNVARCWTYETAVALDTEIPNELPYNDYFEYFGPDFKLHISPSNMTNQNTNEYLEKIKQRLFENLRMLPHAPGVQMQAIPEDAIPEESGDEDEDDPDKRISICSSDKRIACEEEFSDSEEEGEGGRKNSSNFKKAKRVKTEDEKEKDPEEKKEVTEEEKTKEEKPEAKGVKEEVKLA
Sequence of Histone deacetylase 4 (P56524 whole entry): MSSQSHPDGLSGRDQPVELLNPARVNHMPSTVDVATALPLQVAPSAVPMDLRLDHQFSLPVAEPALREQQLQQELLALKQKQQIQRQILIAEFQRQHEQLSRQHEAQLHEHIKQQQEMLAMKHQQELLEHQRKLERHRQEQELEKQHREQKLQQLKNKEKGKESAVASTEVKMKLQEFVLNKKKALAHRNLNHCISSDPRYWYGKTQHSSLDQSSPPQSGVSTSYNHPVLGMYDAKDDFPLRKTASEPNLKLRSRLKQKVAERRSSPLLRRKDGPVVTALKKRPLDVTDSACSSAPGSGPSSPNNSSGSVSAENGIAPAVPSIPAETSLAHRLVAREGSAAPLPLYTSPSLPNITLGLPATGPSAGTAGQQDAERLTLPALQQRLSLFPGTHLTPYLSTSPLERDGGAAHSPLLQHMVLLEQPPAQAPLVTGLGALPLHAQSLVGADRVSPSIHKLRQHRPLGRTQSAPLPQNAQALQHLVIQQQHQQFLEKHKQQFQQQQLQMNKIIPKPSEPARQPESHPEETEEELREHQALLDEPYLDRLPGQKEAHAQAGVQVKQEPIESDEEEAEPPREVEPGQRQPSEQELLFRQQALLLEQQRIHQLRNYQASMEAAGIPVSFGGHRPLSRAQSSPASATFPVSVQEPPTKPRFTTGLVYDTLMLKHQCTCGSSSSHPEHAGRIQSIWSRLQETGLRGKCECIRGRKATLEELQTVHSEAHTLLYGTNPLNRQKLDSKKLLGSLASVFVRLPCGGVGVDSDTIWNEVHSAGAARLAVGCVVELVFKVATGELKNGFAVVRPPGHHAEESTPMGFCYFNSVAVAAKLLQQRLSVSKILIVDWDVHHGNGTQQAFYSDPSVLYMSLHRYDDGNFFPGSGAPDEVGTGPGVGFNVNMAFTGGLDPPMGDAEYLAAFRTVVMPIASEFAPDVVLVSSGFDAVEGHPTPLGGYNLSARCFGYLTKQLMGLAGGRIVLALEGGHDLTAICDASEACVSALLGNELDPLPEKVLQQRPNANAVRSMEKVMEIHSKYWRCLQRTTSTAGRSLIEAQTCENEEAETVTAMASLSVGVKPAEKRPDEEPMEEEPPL
T3 sequence (Q13547 whole entry, looked up): as the sequence (Q13547 whole entry) above
T3 sequence (Q92769 whole entry, looked up): as the sequence (Q92769 whole entry) above

Structure (SMILES): COc1ccc(C(=O)N[C@@H](Cc2c[nH]c3ccccc23)C(=O)NCc2ccc(C(=O)Nc3ccc(F)cc3N)cc2)cc1
- pIC50 [1]: 6.61
- pIC50 [2]: 6.77
- pIC50 [3]: 6.75

Structure (SMILES): CN(C)c1ccc(C(=O)N[C@@H](Cc2c[nH]c3ccccc23)C(=O)NCc2ccc(C(=O)Nc3ccccc3N)cc2)cc1
- pIC50 [4]: 5.62
- pIC50 [5]: 5.82

Structure (SMILES): O=C(CCCCCCC(=O)Nc1ccccc1)NO [VORINOSTAT]
- Activity [6]: 21.23 g

Structure (SMILES): COc1ccc(C(=O)N[C@@H](Cc2c[nH]c3ccccc23)C(=O)Nc2ccc(C(=O)Nc3ccc(F)cc3N)cc2)cc1
- pIC50 [1]: 6.78
- pIC50 [2]: 7.04
- pIC50 [3]: 6.92

Structure (SMILES): COc1ccc(C(=O)N[C@H](COc2ccc(C(=O)Nc3ccccc3N)cc2)Cc2c[nH]c3ccccc23)cc1
- pIC50 [1]: 7.05
- pIC50 [2]: 7.83
- pIC50 [3]: 6.95

Structure (SMILES): COc1ccc(C(=O)N[C@@H](Cc2c[nH]c3ccccc23)C(=O)NCCCCCC(=O)Nc2cc(-c3cccs3)ccc2N)cc1
- pIC50 [7]: < 4.00
- pIC50 [8]: < 4.70
- pIC50 [9]: < 4.00
- pIC50 [1]: 5.45
- pIC50 [10]: < 4.70
- pIC50 [11]: < 4.70
- pIC50 [2]: 7.32
- pIC50 [3]: 6.47
- pIC50 [12]: < 4.70
- pIC50 [13]: < 4.00

Structure (SMILES): COc1ccc(C(=O)N[C@H](COc2ccc(CC(=O)Nc3ccccc3N)cc2)Cc2c[nH]c3ccccc23)cc1
- pIC50 [4]: < 4.70
- pIC50 [1]: < 4.70
- pIC50 [2]: < 4.70
- pIC50 [3]: < 4.70
- pIC50 [5]: < 5.00

Structure (SMILES): COc1ccc(C(=O)N[C@@H](Cc2c[nH]c3ccccc23)C(=O)NCCCCCC(=O)Nc2ccc(F)cc2N)cc1
- pIC50 [7]: < 4.00
- pIC50 [9]: < 4.00
- pIC50 [1]: 6.96
- pIC50 [2]: 6.29
- pIC50 [3]: 6.04
- pIC50 [13]: < 4.00

Structure (SMILES): Nc1ccccc1NC(=O)c1ccc(CNC(=O)[C@H](Cc2c[nH]c3ccccc23)NC(=O)c2ccccn2)cc1
- pIC50 [4]: 5.22
- pIC50 [5]: 5.79

Structure (SMILES): COc1ccc(C(=O)N[C@@H](Cc2c[nH]c3ccccc23)C(=O)NCCCCCC(=O)Nc2ccccc2N)cc1
- pIC50 [1]: 7.37
- pIC50 [2]: 7.23
- pIC50 [3]: 6.53

Structure (SMILES): COc1ccc(C(=O)N[C@@H](Cc2c[nH]c3ccccc23)C(=O)NCc2ccc(C(=O)Nc3cc(-c4cccs4)ccc3N)cc2)cc1
- pIC50 [8]: < 4.70
- pIC50 [1]: 5.10
- pIC50 [10]: < 4.70
- pIC50 [11]: < 4.70
- pIC50 [2]: 7.23
- pIC50 [3]: 6.49
- pIC50 [12]: < 4.70
- pIC50 [14]: < 4.70

Structure (SMILES): Nc1ccccc1NC(=O)c1ccc(CNC(=O)[C@H](Cc2c[nH]c3ccccc23)NC(=O)c2ccco2)cc1
- pIC50 [4]: 5.62
- pIC50 [5]: 6.04

Structure (SMILES): Nc1ccccc1NC(=O)c1ccc(CNC(=O)[C@H](Cc2c[nH]c3ccccc23)NC(=O)c2cccs2)cc1
- pIC50 [4]: 5.76
- pIC50 [5]: 6.11

Structure (SMILES): COc1ccc(C(=O)N[C@@H](Cc2c[nH]c3ccccc23)C(=O)Nc2ccc(C(=O)Nc3cc(-c4cccs4)ccc3N)cc2)cc1
- pIC50 [1]: 4.20
- pIC50 [2]: 7.44
- pIC50 [3]: 6.50

Structure (SMILES): COc1ccc(C(=O)N[C@@H](Cc2c[nH]c3ccccc23)C(=O)NCCCCCC(=O)Nc2cc(-c3ccccc3)ccc2N)cc1
- pIC50 [8]: < 4.70
- pIC50 [1]: 5.25
- pIC50 [10]: < 4.70
- pIC50 [11]: < 4.70
- pIC50 [2]: 7.26
- pIC50 [3]: 6.31
- pIC50 [12]: < 4.70

Structure (SMILES): COc1ccc(C(=O)N[C@@H](Cc2c[nH]c3ccccc23)C(=O)NCc2ccc(C(=O)Nc3cc(-c4ccccc4)ccc3N)cc2)cc1
- Activity [15]: inactive
- pIC50 [8]: < 4.70
- pIC50 [1]: 4.51
- pIC50 [10]: < 4.70
- pIC50 [11]: < 4.70
- inhibition [16]: Active
- pIC50 [2]: 7.23
- pIC50 [3]: 6.51
- inhibition [17]: Active
- pIC50 [12]: < 4.70
- pIC50 [14]: < 4.70
- Activity [18]: inactive
- Activity [19]: inactive
- pIC50 [20]: 4.85

Structure (SMILES): COc1ccc(C(=O)N[C@@H](Cc2c[nH]c3ccccc23)C(=O)Nc2ccc(C(=O)Nc3ccccc3N)cc2)cc1
- pIC50 [4]: 5.67
- pIC50 [1]: 6.64
- pIC50 [2]: 7.30
- pIC50 [3]: 6.36
- pIC50 [5]: 6.07

Structure (SMILES): Nc1ccccc1NC(=O)c1ccc(CNC(=O)[C@H](Cc2c[nH]c3ccccc23)NC(=O)c2ccc(C(F)(F)F)cc2)cc1
- pIC50 [4]: 5.51
- pIC50 [5]: 5.70

Structure (SMILES): COc1ccc(C(=O)N[C@H](CNCc2ccc(C(=O)Nc3ccccc3N)cc2)Cc2c[nH]c3ccccc23)cc1
- pIC50 [1]: 6.65
- pIC50 [2]: 7.52
- pIC50 [3]: 7.67

Structure (SMILES): COc1ccc(C(=O)N[C@H](COc2ccc(/C=C/C(=O)Nc3ccccc3N)cc2)Cc2c[nH]c3ccccc23)cc1
- pIC50 [1]: 6.58
- pIC50 [2]: 6.55
- pIC50 [3]: 6.66

Structure (SMILES): Nc1ccccc1NC(=O)c1ccc(CNC(=O)[C@H](Cc2c[nH]c3ccccc23)NC(=O)c2cnccn2)cc1
- pIC50 [4]: 5.23
- pIC50 [5]: 5.99
